Experimental data from ChEMBL document CHEMBL1201862, “PubChem BioAssay data set” (2004).
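96-well plates; 48 h exposure; 5 concentrations. Endpoints by linear interpolation between flanking doses. Not reached: highest tested concentration assigned. GI50 = concentration required for 50% inhibition of growth.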 Calls of active or inactive are those of the source. Cut-off read from the data, not from the text of the source: active = GI50 up to about 1.1 µM and inactive = higher.

Legend:
Test in all cases: growth of human tumour cells (NCI), 48 h
NCI-H226 = system: NCI-H226
NCI-H460 = system: NCI-H460
PC-3 = system: PC-3
UACC-257 = system: UACC-257
CCRF-CEM = system: CCRF-CEM
MCF7 = system: MCF7
BT-549 = system: BT-549
RPMI-8226 = system: RPMI-8226
SNB-75 = system: SNB-75
SW-620 = system: SW-620
SF-539 = system: SF-539
UO-31 = system: UO-31
HCT-15 = system: HCT-15
A498 = system: A498
OVCAR-5 = system: OVCAR-5
SF-295 = system: SF-295
HCT-116 = system: HCT-116
RXF 393 = system: RXF 393
HOP-62 = system: HOP-62
COLO 205 = system: COLO 205
HT-29 = system: HT-29
NCI/ADR-RES = system: NCI/ADR-RES
M14 = system: M14
SK-MEL-5 = system: SK-MEL-5
DU-145 = system: DU-145
SF-268 = system: SF-268
SR = system: SR
HOP-92 = system: HOP-92
MDA-N = system: MDA-N
ACHN = system: ACHN
SK-OV-3 = system: SK-OV-3
A549 = system: A549
EKVX = system: EKVX
UACC-62 = system: UACC-62
KM12 = system: KM12
T47D = system: T47D
OVCAR-3 = system: OVCAR-3
Hs-578T = system: Hs-578T
SK-MEL-28 = system: SK-MEL-28
HCC 2998 = system: HCC 2998
Malme-3M = system: Malme-3M
SNB-19 = system: SNB-19
SK-MEL-2 = system: SK-MEL-2
K562 = system: K562
U-251 = system: U-251
NCI-H23 = system: NCI-H23
SN12C = system: SN12C
IGROV-1 = system: IGROV-1
NCI-H522 = system: NCI-H522
OVCAR-8 = system: OVCAR-8
TK-10 = system: TK-10
MDA-MB-435 = system: MDA-MB-435
786-0 = system: 786-0
CAKI-1 = system: CAKI-1
LOX IMVI = system: LOX IMVI
OVCAR-4 = system: OVCAR-4
MDA-MB-231 = system: MDA-MB-231
MOLT-4 = system: MOLT-4
HL-60 = system: HL-60

With `O=C(C[n+]1ccc2ccccc2c1)c1ccc2ccc3ccccc3c2c1` the GI50 (NCI-H226) was 7.94 µM (inactive), the GI50 (NCI-H460) was 0.741 µM (active) and the GI50 (PC-3) was 2.84 µM (inactive). For the same compound, the GI50 (UACC-257) was 2.04 µM (inactive), the GI50 (CCRF-CEM) was 0.815 µM (active) and the GI50 (MCF7) was 2.39 µM (inactive). For the same compound, the GI50 (BT-549) was 11.2 µM (inactive), the GI50 (RPMI-8226) was 0.129 µM (active) and the GI50 (SNB-75) was 5.85 µM (inactive). The GI50 (SW-620) was 1.31 µM (inactive), the GI50 (SF-539) was 0.483 µM (active) and the GI50 (UO-31) was 4.69 µM (inactive). For the same compound, the GI50 (HCT-15) was 5.07 µM, the GI50 (A498) was 4.94 µM (inactive) and the GI50 (OVCAR-5) was 5.07 µM (inactive). The GI50 (SF-295) was 0.824 µM (active), the GI50 (HCT-116) was 0.959 µM (active) and the GI50 (RXF 393) was 5.02 µM (inactive). For the same compound, the GI50 (HOP-62) was 5.94 µM (inactive), the GI50 (COLO 205) was 1.07 µM (active) and the GI50 (HT-29) was 1.03 µM (active). For the same compound, the GI50 (NCI/ADR-RES) was 15.2 µM (inactive), the GI50 (M14) was 2.22 µM (inactive) and the GI50 (SK-MEL-5) was 3.03 µM (inactive). For the same compound, the GI50 (DU-145) was 6.19 µM (inactive), the GI50 (SF-268) was 4.52 µM (inactive) and the GI50 (SR) was 0.406 µM (active). The GI50 (HOP-92) was 1.62 µM (inactive), the GI50 (MDA-N) was 0.647 µM (active) and the GI50 (ACHN) was 2.22 µM (inactive). The GI50 (SK-OV-3) was 6.82 µM (inactive), the GI50 (A549) was 3.23 µM (inactive) and the GI50 (EKVX) was 6.27 µM (inactive). For the same compound, the GI50 (UACC-62) was 2.99 µM (inactive), the GI50 (KM12) was 1.33 µM (inactive) and the GI50 (T47D) was 4.74 µM (inactive). The GI50 (OVCAR-3) was 4.15 µM (inactive), the GI50 (Hs-578T) was 8.32 µM (inactive) and the GI50 (SK-MEL-28) was 2.12 µM (inactive). The GI50 (HCC 2998) was 1.66 µM (inactive), the GI50 (Malme-3M) was 7.71 µM (inactive) and the GI50 (SNB-19) was 2.6 µM (inactive). For the same compound, the GI50 (SK-MEL-2) was 4.56 µM (inactive), the GI50 (K562) was 0.151 µM (active) and the GI50 (U-251) was 2.21 µM (inactive). For the same compound, the GI50 (NCI-H23) was 2.38 µM (inactive), the GI50 (SN12C) was 1.91 µM (inactive) and the GI50 (IGROV-1) was 2.23 µM (inactive). The GI50 (NCI-H522) was 6.38 µM (inactive), the GI50 (OVCAR-8) was 3.21 µM (inactive) and the GI50 (TK-10) was 1.4 µM (inactive). The GI50 (MDA-MB-435) was 0.841 µM (active), the GI50 (786-0) was 1.67 µM (inactive) and the GI50 (CAKI-1) was 4.9 µM (inactive). The GI50 (LOX IMVI) was 1.08 µM (active), the GI50 (OVCAR-4) was 3.84 µM (inactive) and the GI50 (MDA-MB-231) was 1.28 µM (inactive).
`Cc1cc(C)c2c(n1)S(=O)(=O)N(CCCN1CCN(c3cccc(C(F)(F)F)c3)CC1)c1c-2nn(C)c1C` was tested, and the GI50 (NCI-H226) was 30.7 µM (inactive), the GI50 (NCI-H460) was 89.3 µM (inactive) and the GI50 (PC-3) was 25.9 µM (inactive). For the same compound, the GI50 (UACC-257) was 32.5 µM (inactive), the GI50 (CCRF-CEM) was 66.7 µM (inactive) and the GI50 (MCF7) was 38.5 µM (inactive). For the same compound, the GI50 (BT-549) was > 100 µM (inactive), the GI50 (SNB-75) was > 100 µM (inactive) and the GI50 (SW-620) was > 100 µM (inactive). For the same compound, the GI50 (SF-539) was > 100 µM (inactive), the GI50 (UO-31) was 44.4 µM (inactive) and the GI50 (HCT-15) was 44.5 µM. For the same compound, the GI50 (A498) was > 100 µM (inactive), the GI50 (OVCAR-5) was > 100 µM (inactive) and the GI50 (SF-295) was 52.7 µM (inactive). The GI50 (HCT-116) was 61.8 µM (inactive), the GI50 (RXF 393) was > 100 µM (inactive) and the GI50 (HOP-62) was > 100 µM (inactive). The GI50 (COLO 205) was 26.1 µM (inactive), the GI50 (HT-29) was 16.6 µM (inactive) and the GI50 (NCI/ADR-RES) was 53.3 µM (inactive). For the same compound, the GI50 (MOLT-4) was 10.8 µM (inactive), the GI50 (M14) was 43.9 µM (inactive) and the GI50 (SK-MEL-5) was 23.1 µM (inactive). For the same compound, the GI50 (DU-145) was > 100 µM (inactive), the GI50 (SF-268) was > 100 µM (inactive) and the GI50 (SR) was 19.4 µM (inactive). For the same compound, the GI50 (HOP-92) was 45.3 µM (inactive), the GI50 (MDA-N) was 39.9 µM (inactive) and the GI50 (ACHN) was > 100 µM (inactive). For the same compound, the GI50 (SK-OV-3) was > 100 µM (inactive), the GI50 (A549) was 65.6 µM (inactive) and the GI50 (EKVX) was > 100 µM (inactive). For the same compound, the GI50 (UACC-62) was 58.7 µM (inactive), the GI50 (KM12) was 52.8 µM (inactive) and the GI50 (T47D) was > 100 µM (inactive). The GI50 (OVCAR-3) was 67.1 µM (inactive), the GI50 (Hs-578T) was > 100 µM (inactive) and the GI50 (SK-MEL-28) was 60 µM (inactive). For the same compound, the GI50 (HCC 2998) was > 100 µM (inactive), the GI50 (HL-60) was 24 µM (inactive) and the GI50 (Malme-3M) was > 100 µM (inactive). The GI50 (SNB-19) was > 100 µM (inactive), the GI50 (SK-MEL-2) was > 100 µM (inactive) and the GI50 (K562) was 30.3 µM (inactive). For the same compound, the GI50 (U-251) was > 100 µM (inactive), the GI50 (NCI-H23) was 61.2 µM (inactive) and the GI50 (SN12C) was 97.5 µM (inactive). For the same compound, the GI50 (IGROV-1) was 55.2 µM (inactive), the GI50 (NCI-H522) was 57.4 µM (inactive) and the GI50 (OVCAR-8) was > 100 µM (inactive). The GI50 (TK-10) was > 100 µM (inactive), the GI50 (MDA-MB-435) was 40.5 µM (inactive) and the GI50 (786-0) was > 100 µM (inactive). For the same compound, the GI50 (CAKI-1) was 43.1 µM (inactive), the GI50 (LOX IMVI) was 52.6 µM (inactive) and the GI50 (OVCAR-4) was 75.3 µM (inactive). The GI50 (MDA-MB-231) was > 100 µM (inactive).
With `O=[N+]([O-])c1cccc(Cl)c1Oc1ccc(S(=O)(=O)N/C(=N\O)Nc2ccc(Cl)cc2)cc1` the GI50 (NCI-H226) was 21.2 µM (inactive), the GI50 (NCI-H460) was 12.8 µM (inactive) and the GI50 (PC-3) was 11.5 µM (inactive). The GI50 (UACC-257) was 11.1 µM (inactive), the GI50 (CCRF-CEM) was 2.55 µM (inactive) and the GI50 (MCF7) was 13.3 µM (inactive). The GI50 (BT-549) was 14.5 µM (inactive), the GI50 (RPMI-8226) was 6.01 µM (inactive) and the GI50 (SW-620) was 15.1 µM (inactive). The GI50 (SF-539) was 14.6 µM (inactive), the GI50 (UO-31) was 9.1 µM (inactive) and the GI50 (HCT-15) was 15 µM. The GI50 (A498) was 14.2 µM (inactive), the GI50 (OVCAR-5) was 17 µM (inactive) and the GI50 (SF-295) was 16.1 µM (inactive). For the same compound, the GI50 (HCT-116) was 12.5 µM (inactive), the GI50 (RXF 393) was 13.8 µM (inactive) and the GI50 (HOP-62) was 20.2 µM (inactive). For the same compound, the GI50 (COLO 205) was 17.1 µM (inactive), the GI50 (HT-29) was 17.1 µM (inactive) and the GI50 (NCI/ADR-RES) was 20.3 µM (inactive). The GI50 (MOLT-4) was 3.11 µM (inactive), the GI50 (M14) was 14.2 µM (inactive) and the GI50 (SK-MEL-5) was 11.9 µM (inactive). For the same compound, the GI50 (DU-145) was 15.5 µM (inactive), the GI50 (SF-268) was 9.1 µM (inactive) and the GI50 (SR) was 6.14 µM (inactive). For the same compound, the GI50 (HOP-92) was 4.76 µM (inactive), the GI50 (MDA-N) was 12.7 µM (inactive) and the GI50 (ACHN) was 14.1 µM (inactive). The GI50 (SK-OV-3) was 17.1 µM (inactive), the GI50 (A549) was 13.9 µM (inactive) and the GI50 (EKVX) was 12.2 µM (inactive). For the same compound, the GI50 (UACC-62) was 12.7 µM (inactive), the GI50 (KM12) was 15.9 µM (inactive) and the GI50 (T47D) was 5.97 µM (inactive). The GI50 (OVCAR-3) was 10.3 µM (inactive), the GI50 (Hs-578T) was 5.79 µM (inactive) and the GI50 (SK-MEL-28) was 15.1 µM (inactive). The GI50 (HCC 2998) was 10.8 µM (inactive), the GI50 (Malme-3M) was 13.1 µM (inactive) and the GI50 (SNB-19) was 16.2 µM (inactive). For the same compound, the GI50 (SK-MEL-2) was 13 µM (inactive), the GI50 (K562) was 14.3 µM (inactive) and the GI50 (U-251) was 13.6 µM (inactive). For the same compound, the GI50 (NCI-H23) was 15.5 µM (inactive), the GI50 (SN12C) was 12.3 µM (inactive) and the GI50 (IGROV-1) was 15.1 µM (inactive). The GI50 (NCI-H522) was 4.74 µM (inactive), the GI50 (OVCAR-8) was 16.3 µM (inactive) and the GI50 (TK-10) was 14.8 µM (inactive). For the same compound, the GI50 (MDA-MB-435) was 14.3 µM (inactive), the GI50 (786-0) was 12.9 µM (inactive) and the GI50 (CAKI-1) was 9.46 µM (inactive). For the same compound, the GI50 (LOX IMVI) was 14.3 µM (inactive), the GI50 (OVCAR-4) was 7.1 µM (inactive) and the GI50 (MDA-MB-231) was 17.7 µM (inactive).
